Here are results for 10 compounds from patent publication US10195245B2, “Tetrapeptides derived from human C-X-C chemokines useful for treatment of various skin conditions” (Helix Biomedix, Inc., priority 2013, dated 2019).

Entries after “also recorded” stand apart in the source; their conditions may differ. Marks after values point to notes of the source that are not given here. Where a SMILES comes first, the peptide text is derived from it.

Holding throughout (format): cell-based
The nature of series [1]: MTT cytotoxicity test on keratinocytes. To be noted: human, normal human epidermal keratinocytes, 50 to 500 μg/ml tested. The protocol: C-X-C chemokines are well known for their chemotactic activity toward many cell types. […] The experiment was performed in the serum-free keratinocyte growth medium in the absence of supplement in order to restrain cells proliferation. The wounded area was examined by phase-contrast microscopy at the indicated times. […] At 20 μg/ml, the percentage of wound closure induced by SEQ IDs 1, 2, 3, 4, 5, 6 and 7 ranges from 165% to 240% compared to that of PBS treated which was taken as 100% (Table 1). […] To confirm that the peptides are not toxic to the keratinocytes at the concentrations tested for scratch wound closure all peptides were subjected to the MTT cytotoxicity test. None of the peptides were cytotoxic to normal skin keratinocyte in vitro after 24 hrs incubation at concentrations up to 500 ug/ml.
To make sure the peptides are not cytotoxic to the cells, normal human epidermal keratinocytes were seeded to a 96-well plate. The plate was incubated at 37° C. in the presence of 5% CO2 to allow the cells to grow to >95% confluent. Peptides are diluted into stock solutions at concentrations of 50, 100, 200, and 500 μg/ml. The cell culture media are replaced with fresh media containing peptides at various concentrations then incubated at 37° C. and 5% CO2 for 24 hr. At the end of treatment the cell viability was measured using MTT assay kit purchased from ATCC (Manassas Va.).
(In general: Tetrazolium assays rely on reduction of a dye to a coloured formazan, in cell work by metabolically active cells.)

The subject of series [2] is SOR-300-FT human psoriasis tissue construct. As to the kind of experiment: qPCR gene expression on SOR-300-FT psoriasis tissue. The text has this: SOR-300-FT, developed by MatTek Corporation (Ashland Mass.), is a highly differentiated in vitro psoriasis tissue comprised of normal, human-derived keratinocytes and psoriatic fibroblasts Morphologically, the tissue is of uniform thickness and it expresses increased levels of hyperproliferated cells as well as pro-inflammatory markers such as psoriasin, elafin, human beta-defensin-2, and LL-37 etc (Ayehunie et al., 2012). The pro-inflammatory condition of the tissue prompts us to test the inventive peptides to see if they modulate the inflammatory response. Due to the high cost of the tissue model, a representative peptide SEQ ID NO 1, HB2233, was selected as a proof of concept study using SOR-300-FT tissue model. The SOR-300-FT tissues were treated with HB2233 in duplicate at 200 μg/ml. Total 12 gene markers associated with psoriasis condition are studied. […] Both HB2233 and calcipotriol down-regulate Ki67 expression which is responsible for the hyperproliferation and early maturation of keratinocytes in psoriasis skin.
SOR-300-FT™ tissues were transferred to 6-well plates containing 0.9 ml of pre-warmed assay medium and equilibrated to standard culture conditions (37° C., 5% CO2) for 1 hour. After the 1 hr equilibration, the tissues were re-fed with fresh medium as follow: 1) for the 24 hr time point, tissues were feed with 0.9 ml of medium and 2) for time points >24 hr, tissues were feed with 5 ml of culture medium by placing the cell culture inserts on top of the washers (Part # EPI-WSHR, MatTek Corporation). Next, 50 μl of the test articles were applied topically to the psoriatic tissues (n=3) and the test article was added to the culture medium at the 3 concentrations chosen by the Sponsor. At times 24, and 48 hours: a) the tissues were rinsed topically 3× with 300-400 μL of PBS, b) the inserts containing the tissues were held tightly with sterile forceps and the test article was rinsed gently by immersing the insert into PBS and decant medium from insert, and c) fresh test article was re-applied to the tissue immediately after rinsing and decanting (50 μL topically). Analysis was performed at t=72 hr (3× repeat applications). cDNA was generated using the Qiagen RT2 First Strand Kit (cat#330401). Relative gene expression was measured using Qiagen RT2 SYBR Green qPCR Mastermix (cat#330502) and Qiagen RT2 primers. Analysis was carried out using Bio-Rad CFX software.
(In general: Quantitative PCR measures a nucleic acid by following its amplification.)

The subject of series [3] is human umbilical vein endothelial cells (HUVEC). As to the kind of experiment: In vitro angiogenesis assay (capillary tube formation). More on the design: key to Promote tube formation 3 hrs / Promote tube formation 5 hrs: 0: Individual cells, well separated; 1: Cells begin to migrate and align themselves; 2: Capillary tubes visible, no sprouting; 3: Sprouting of new capillary tubes visible; 4: Closed polygons begin to form; 5: Complex mesh like structures develop. The text has this: Angiogenesis, the formation of new capillaries from the pre-existing vascular network, is an essential step of wound repair. The peptides generated in the current invention, SEQ ID NOs 1-7, also stimulate capillary tube formation. The in vitro angiogenesis assay uses human umbilical vein endothelial cells (HUVEC) to measurer a series of events that lead to forming new capillary tubes. Upon induction, the HUVEC undergoes migration to align then sprouting from individual cells. The sprouting event leads to formation of new capillary tubes which further develop to form closed polygons. Eventually a complex mesh like structure is developed. Human cathelicidin peptide, LL-37, is a well-studied example to promote angiogenesis. It is used as positive control in the assessment. […] Compared to LL-37, SEQ ID NOs.
The angiogenesis assay was performed using the In Vitra Angiogenesis Assay Kit purchased from Millipore. Briefly, matrix layer was prepared with ECMATRIX™ solution according to the manufacturer's instructions. The human umbilical vein endothelial cells (HUVEC) (ATCC, Manassas, Va.) were cultured in complete F12K medium (ATCC, Manassas, Va.) supplemented with 0.1 mg/ml of heparin (Sigma-Aldrich), 30 ug/ml of ECGS (Sigma-Aldrich) and 10% fetal bovine serum (ATCC, Manassas, Va.). The cells were harvested and resuspended in complete media. The peptide was mixed with cells at approximately 5×10^3-1×10^4 cells per well in a 96-well plate prior to seeding cells onto the surface of the polymerized ECMATRIX™ solution. The plate was incubated at […], 5% CO2 for up to 9-12 hr. Tube formation was inspected under an inverted light microscope periodically and pictures were taken at 3 and 5 hr intervals and assigned a numerical value to each pattern as shown below.

In series [4] the test system is S. aureus LTA induced IL-6 expression on human skin keratinocytes. Put plainly: Blocking LTA induced IL-6 expression (ELISA). Conditions: LTA 10 ug/ml pre-incubated with peptide 50 μg/ml 30 min, 24 hrs. The text has this:
The Gram-positive cell wall component peptidoglycan (PGN) is well known to stimulate pro-inflammatory cytokine expression. Lipoteichoic acid (LTA) is the key molecule in PGN that causes a concentration- and time-dependent increase in pro-inflammatory signals including nitric oxide synthase (iNOS), cyclooxygenase-2 (COX-2), IL-1 beta, TNF-alpha and IL-6 up-regulation (Lin et al., 2010). We therefore pretreated LTA with the inventive peptides and then assess the IL-6 stimulatory activity upon contact with human skin keratinocytes. […] It is very likely that the positively charged residues of the tetrapeptides bind to the negatively charged LTA thus blocking the interaction of LTA with its receptors. This is significant as bacterial cell wall components have been implicated in inflammatory skin conditions such as acne, rosacea, atopic dermatitis etc.
S. aureus LTA induced IL-6 stimulation on human epidermal keratinocytes. Human keratinocytes were grown to >80% confluence in serum free keratinocyte cultural media. S. aureus LTA 10 ug/ml was pre-incubated with each peptide (50 μg/ml) at room temperature for 30 min then the mixture was transferred to keratinocyte culture. The treatment was allowed for 24 hrs. The supernatant was removed. […]

Setting [5] is: 72 hr, HB2233 at 200 μg/ml, listed as calcipotriol.

`CC[C@H](C)[C@H](N)C(=O)N[C@@H](CCC(N)=O)C(=O)N[C@@H](CCCCN)C(=O)N[C@H](C(=O)O)[C@@H](C)CC` [HB2271, IQKI] (H-IQKI-OH; N-terminus and C-terminus assumed): the CC50 at 24 h in series [1] was above 500 µg/mL.
Regarding `C=C1/C(=C\C=C2/CCC[C@]3(C)[C@@H]([C@H](C)/C=C/[C@@H](O)C4CC4)CC[C@@H]23)C[C@@H](O)C[C@@H]1O` [Calcipotriol, calcipotriol], in series [2] (72 hr treatment, qPCR), the “downregulation of HBD-2” value worked out at 9.0 fold and the downregulation of psoriasin is on record as 2.3 fold. Moreover, in series [2] (72 hr, HB2233 at 200 μg/ml), the “Fold change in gene expression: Calgranulin C” value was −1.3 fold, the “Fold change in gene expression: ENA-78” value is reported as 1.6 fold, the “Fold change in gene expression: Elafin” value is −1.4 fold and the “Fold change in gene expression: GRO alpha” value was found to be 1.3 fold. In series [2] (72 hr, HB2233 at 200 μg/ml), the “Fold change in gene expression: HBD-2” value is on record as −9.0 fold, the “Fold change in gene expression: IL-8” value is given as 1.3 fold, the “Fold change in gene expression: Ki-67” value was −1.1 fold and the “Fold change in gene expression: LL-37” value is given as 5.1 fold. In addition, in series [2] (72 hr, HB2233 at 200 μg/ml), the “Fold change in gene expression: P63” value is −1.4 fold, the “Fold change in gene expression: Psoriasin” value is reported as −2.3 fold, the “Fold change in gene expression: SLPI” value is 2.1 fold and the “Fold change in gene expression: Transglutaminase” value was determined as 1.5 fold. In addition, in series [2] (setting [5]), the “Fold change in gene expression: ENA-78” value is “does not seem to affect”, the “Fold change in gene expression: GRO alpha” value was “does not seem to affect” and the “Fold change in gene expression: Ki-67” value was “down-regulate”.
“LL-37 (LLGDFFRKSKEKIGKEFKRIVQRIKDFLRNLVPRTES; Antibacterial peptide LL-37; UniProt P49913 134-170, looked up) [Human cathelicidin peptide, used as positive control to promote angiogenesis]”: the “capillary tube formation on HUVEC (in words)” value in series [3] (3 and 5 hr treatment) is “sprouting of new capillary tubes becomes visible just after 3 hr; also recorded: After 5 hr treatment with LL-37, the closed polygons are formed; also recorded: also stimulate angiogenesis”. The “Promote tube formation 3 hrs” value in series [3] (3 hrs, values ≥3 considered significant induction of angiogenesis) is given as 3*. In addition, the “Promote tube formation 5 hrs” value in series [3] (5 hrs, values ≥3 considered significant induction of angiogenesis) is on record as 4*.
`CC[C@H](C)[C@H](N)C(=O)N[C@@H](CCCCN)C(=O)N[C@@H](CCCCN)C(=O)N[C@@H](Cc1c[nH]c2ccccc12)C(=O)O` [HB2272, IKKW] (H-IKKW-OH; N-terminus and C-terminus assumed) registered a 50% cytotoxic concentration (CC50) at 24 h in series [1] above 500 µg/mL.
As for Lipoteichoic acid [LTA alone], in series [4], the “IL-6 expression (arbitrary)” value is listed as 1.248 arbitrary.
Regarding `CC[C@H](C)[C@H](N)C(=O)N[C@@H](CCCCN)C(=O)N[C@@H](CCCCN)C(=O)N[C@H](C(=O)O)C(C)C` [HB2273, IKKV] (H-IKKV-OH; N-terminus and C-terminus assumed), the CC50 at 24 h in series [1] is above 500 µg/mL.
In series [1], `CC[C@H](C)[C@H](N)C(=O)N[C@@H](CCCCN)C(=O)N[C@@H](CCCCN)C(=O)N[C@@H](CC(C)C)C(=O)O` [HB2274, IKKL] (H-IKKL-OH; N-terminus and C-terminus assumed) showed a half-maximal cytotoxic concentration (CC50) at 24 h above 500 µg/mL.
As to `CC[C@H](C)[C@H](N)C(=O)N[C@@H](CCC(=O)O)C(=O)N[C@@H](CCCCN)C(=O)N[C@H](C(=O)O)[C@@H](C)CC` [HB2270, IEKI] (H-IEKI-OH; N-terminus and C-terminus assumed), the CC50 at 24 h in series [1] is above 500 µg/mL.
For the compound `CC(C)[C@H](N)C(=O)N[C@@H](CCC(=O)O)C(=O)N[C@@H](CCCCN)C(=O)N[C@@H](Cc1ccccc1)C(=O)O` [HB2267, VEKF] (H-VEKF-OH; N-terminus and C-terminus assumed), the half-maximal cytotoxic concentration (CC50) at 24 h in series [1] is above 500 µg/mL.
The compound `CC[C@H](C)[C@H](N)C(=O)N[C@@H](CCC(=O)O)C(=O)N[C@@H](CCCCN)C(=O)N[C@@H](CCSC)C(=O)O` [HB2233, IEKM] (H-IEKM-OH) displayed a CC50 at 24 h in series [1] above 500 µg/mL.

The CC50 is the concentration giving 50% cytotoxicity.
